Values after ≈ are worked out from the molar mass of the structure shown.
Tests used:
[1] = target: S. aureus DHFR (Staphylococcus aureus, UniProt P0A017); format: biochemical; settings: read-out: Ki, nM (SEM) S. aureus 29213; pH 7.0, 30 °C
[2] = test system: B. anthracis Sterne; format: cell-based, Bacillus anthracis
[3] = test system: S. aureus 29213; format: cell-based, Staphylococcus aureus
[4] = target: B. anthracis DHFR (Bacillus anthracis, UniProt Q81R22); format: biochemical; settings: read-out: Ki, nM (SEM) B. anthracis Sterne; pH 7.0, 30 °C
Sequence of B. anthracis DHFR (Q81R22 1-162): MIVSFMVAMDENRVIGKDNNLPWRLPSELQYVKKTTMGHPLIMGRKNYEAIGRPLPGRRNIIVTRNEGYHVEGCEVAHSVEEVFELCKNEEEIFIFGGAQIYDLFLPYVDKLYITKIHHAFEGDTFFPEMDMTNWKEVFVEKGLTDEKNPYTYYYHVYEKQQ

Sequence of S. aureus DHFR (P0A017 whole entry): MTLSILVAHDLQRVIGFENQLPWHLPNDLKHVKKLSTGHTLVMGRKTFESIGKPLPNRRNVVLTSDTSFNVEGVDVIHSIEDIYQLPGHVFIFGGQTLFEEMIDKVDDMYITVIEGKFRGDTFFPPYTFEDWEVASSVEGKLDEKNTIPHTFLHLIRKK

| SMILES | Ki [1] | MIC, μg/mL B. anthracis Sterne [2] | MIC, μg/mL S. aureus 29213 [3] | Ki [4] |
| --- | --- | --- | --- | --- |
| CCCc1nc(N)nc(N)c1Cc1cc(/C=C/C(=O)N2N=Cc3ccccc3C2CCC)c(OC)c(OC)c1 (racemic) [Compound 11c, (±)-(E)-3-5-[(2,4-Diamino-6-propyl-5-pyrimidinyl)methyl]-2,3-dimethoxyphenyl}-1-(1-propyl-2(1H)-phthalazinyl)-2-propen-1-one] | 4 nM | 1 µg/mL (≈ 1.89 µM) | 1 to 2 µg/mL |  |
| CCCC1c2ccccc2C=NN1C(=O)/C=C/c1cc(Cc2c(C)nc(N)nc2N)cc(OC)c1OC (racemic) [Compound 11a, (±)-(E)-3-{5-[(2,4-Diamino-6-methyl-5-pyrimidinyl)methyl]-2,3-dimethoxyphenyl}-1-(1-propyl-2(1H)-phthalazinyl)-2-propen-1-one] | 4.5 nM | 8 µg/mL (≈ 16 µM) | 0.5 µg/mL (≈ 0.999 µM) | 72.4 nM |
| CCCC1c2ccccc2C=NN1C(=O)/C=C/c1cc(Cc2c(N)nc(N)nc2CC)cc(OC)c1OC (racemic) [Compound 11b, (±)-(E)-3-5-[(2,4-Diamino-6-ethyl-5-pyrimidinyl)methyl]-2,3-dimethoxyphenyl}-1-(1-propyl-2(1H)-phthalazinyl)-2-propen-1-one] | 3.6 nM | 4 µg/mL (≈ 7.77 µM) | 0.5 to 2 µg/mL |  |
| COc1cc(Cc2c(C)nc(N)nc2N)cc(/C=C/C(=O)N2N=Cc3ccccc3C2C=C(C)C)c1OC (racemic) [Compound 12a, (±)-(E)-3-{5-[(2,4-Diamino-6-methyl-5-pyrimidinyl)methyl]-2,3-dimethoxyphenyl}-1-(1-isobutenyl-2(1H)-phthalazinyl)-2-propen-1-one] | 3.4 nM | 4 µg/mL (≈ 7.8 µM) | 0.25 to 0.5 µg/mL | 14.3 nM |
| CCc1nc(N)nc(N)c1Cc1cc(/C=C/C(=O)N2N=Cc3ccccc3C2C=C(C)C)c(OC)c(OC)c1 (racemic) [Compound 12b, (±)-(E)-3-{5-[(2,4-Diamino-6-ethyl-5-pyrimidinyl)methyl]-2,3-dimethoxyphenyl}-1-(1-isobutenyl-2(1H)-phthalazinyl)-2-propen-1-one] | 2.9 nM | 4 µg/mL (≈ 7.6 µM) | 0.25 to 0.5 µg/mL | 25.4 nM |
| CCCc1nc(N)nc(N)c1Cc1cc(/C=C/C(=O)N2N=Cc3ccccc3C2C=C(C)C)c(OC)c(OC)c1 (racemic) [Compound 12c, (±)-(E)-3-{5-[(2,4-Diamino-6-propyl-5-pyrimidinyl)methyl]-2,3-dimethoxyphenyl}-1-(1-isobutenyl-2(1H)-phthalazinyl)-2-propen-1-one] | 4.1 nM | 2 µg/mL (≈ 3.7 µM) | 2 µg/mL (≈ 3.7 µM) |  |

Source: paper PMC3570588 (ChemMedChem, 2012)
